Experimental data: patent publication US11319279B2, “Antimicrobial compound and use thereof” (priority 2014, dated 2022)
In brackets after ≈: the same amount, converted by molar mass. Read-outs that look alike come from different tables or passages of the source. Blank lines part the entries; values can stand above or below the compound they belong to.

Key:
QRSA CCARM 3519 = experiment: MIC by broth microdilution; format: cell-based, quinolone-resistant Staphylococcus aureus; settings: Staphylococcus aureus, CCARM3519, MHB, 20 hours
[1] = system: Enterococcus faecalis KTCT 5191; experiment: MIC by broth microdilution; settings: for MIC: Enterococcus faecalis, KCTC5191, 20 h
Procedure: (§1) A test microorganism was cultured in Mueller Hinton broth (MHB) and the antimicrobial activity was measured by the broth microdilution method. […] The compound was diluted in dimethylsulfoxide (DMSO) and the experiment was performed by adjusting the DMSO concentration to a 1/100 level. After culturing for 20 hours, the OD value was measured at 650 nm and the growth of the microorganism was examined.

[2] = system: Salmonella typhimurium KTCT 1926; experiment: MIC by broth microdilution; format: cell-based; settings: Salmonella enterica, MHB, 20 hours
[3] = system: Acinetobacter calcoaceticus KTCT 2357; experiment: MIC by broth microdilution; format: cell-based
Escherichia coli = experiment: MIC by broth microdilution, summary over E. coli strains; format: cell-based; settings: range over E. coli strains of Table 2
[4] = system: Enterococcus faecalis KTCT 3511; experiment: MIC by broth microdilution; format: cell-based
[5] = system: Acinetobacter baumannii KCTC 2508; experiment: MIC by broth microdilution; format: cell-based; settings: KCTC2508, MHB, 20 hours
[6] = system: MRSA (CCARM3167, CCARM3506) and QRSA (CCARM 3505, CCARM 3519); experiment: MIC by broth microdilution, summary over MRSA and QRSA strains; format: cell-based; settings: Staphylococcus aureus; range over MRSA CCARM3167, CCARM3506 and QRSA CCARM 3505, CCARM 3519; read-out: MICs in MRSA and QRSA
E. coli KTCT 1682 = experiment: MIC by broth microdilution; format: cell-based; settings: Escherichia coli, KCTC1682; E. coli KTCT 1682 (KCTC 1682 in Table 4); MHB, 20 hours
[7] = system: Bacillus subtilis KCTC 1021; experiment: MIC by broth microdilution; format: cell-based; settings: KCTC1021, MHB, 20 hours
[8] = system: Pseudomonas aeruginosa KTCT 2742; experiment: MIC by broth microdilution; format: cell-based
[9] = system: Staphylococcus aureus 209; experiment: MIC by broth microdilution; format: cell-based; settings: MHB, 20 hours
[10] = system: Staphylococcus aureus RN 4220; experiment: MIC by broth microdilution; format: cell-based; settings: RN4220, 20 h
VRE = experiment: Antimicrobial activity against VRE; format: cell-based, vancomycin resistant enterococcus; settings: statement in words, refers to Example 5
S. aureus = experiment: MIC by broth microdilution, summary over S. aureus strains; format: cell-based; settings: Staphylococcus aureus; range over S. aureus strains of Table 2
[11] = system: Klebsiella aerogenes and Pseudomonas aeruginosa; experiment: MIC by broth microdilution, summary over Klebsiella and Pseudomonas strains; format: cell-based; settings: range over strains of Table 2
[12] = system: Staphylococcus aureus 503; experiment: MIC by broth microdilution; format: cell-based; settings: MHB, 20 hours
[13] = system: Pseudomonas aeruginosa KTCT 2004; experiment: MIC by broth microdilution; settings: KCTC2004, 20 h
Procedure: as §1

[14] = system: Streptococcus pneumoniae KTCT 5412; experiment: MIC by broth microdilution; settings: KCTC5412, 20 h
Procedure: as §1

QRSA CCARM 3505 = experiment: MIC by broth microdilution; format: cell-based, quinolone-resistant Staphylococcus aureus; settings: Staphylococcus aureus, CCARM3505, MHB, 20 hours
E. coli CCARM 1356 = experiment: MIC by broth microdilution; format: cell-based, Escherichia coli; settings: for MIC: Escherichia coli, CCARM1356, E. coli CCARM 1356, MHB, 20 hours
VISA = experiment: Antimicrobial activity against VISA; format: cell-based, vancomycin intermediate-resistant S. aureus; settings: statement in words, refers to Example 5
[15] = system: Bacillus subtilis KTCT 1661; experiment: MIC by broth microdilution; format: cell-based
MRSA CCARM 3506 = experiment: MIC by broth microdilution; format: cell-based, methicillin-resistant Staphylococcus aureus; settings: Staphylococcus aureus, MHB, 20 hours
[16] = system: Klebsiella pneumoniae KCTC 22057; experiment: MIC by broth microdilution; format: cell-based; settings: KCTC22057, MHB, 20 hours
MRSA CCARM 3167 = experiment: MIC by broth microdilution; format: cell-based, methicillin-resistant Staphylococcus aureus; settings: for MIC: Staphylococcus aureus, MRSA CCARM 3167, MHB, 20 hours
[17] = system: Staphylococcus epidermidis KTCT 3958; experiment: MIC by broth microdilution; format: cell-based
[18] = system: Klebsiella aerogenes KTCT 2619; experiment: MIC by broth microdilution; format: cell-based; settings: KTCT2619, MHB, 20 hours

Structure (SMILES): COC(C(N)=O)C(NC(=O)c1ccc(NC(=O)c2ccc([N+](=O)[O-])cc2)cc1)C(=O)Nc1ccc(C(=O)Nc2ccc(C(=O)Nc3ccc(C(=O)O)cc3OC(C)C)c(O)c2OC(C)C)cc1 (stereo not shown) [Coralmycin A]
MIC (QRSA CCARM 3519): 1 µg/mL (≈ 1.09 µM) | MIC [1]: 0.125 µg/mL (≈ 0.136 µM) | MIC [2]: 0.063 µg/mL (≈ 0.0685 µM) | MIC ([3]; KTCT2357, Acinetobacter calcoaceticus KTCT 2357, MHB, 20 hours, read-out: MIC): 0.25 µg/mL (≈ 0.272 µM) | MIC (Escherichia coli): 0.5 to 1 µg/mL (≈ 0.544 to 1.09 µM) | MIC ([4]; KTCT3511, Enterococcus faecalis KTCT 3511, MHB, 20 hours, read-out: MIC): 0.125 µg/mL (≈ 0.136 µM) | MIC [5]: 0.25 µg/mL (≈ 0.272 µM) | MIC [6]: 0.1 to 1 µg/mL (≈ 0.109 to 1.09 µM) | MIC (E. coli KTCT 1682): 0.5 µg/mL (≈ 0.544 µM) | MIC [7]: 0.063 µg/mL (≈ 0.0685 µM) | MIC ([8]; KTCT2742, Pseudomonas aeruginosa KTCT 2742, MHB, 20 hours, read-out: MIC): 32 µg/mL (≈ 34.8 µM) | MIC [9]: 0.125 µg/mL (≈ 0.136 µM) | MIC [10]: 0.063 µg/mL (≈ 0.0685 µM) | antimicrobial activity against VRE (VRE): confirmed | MIC (S. aureus): 0.06 to 1 µg/mL (≈ 0.0652 to 1.09 µM) | MIC [11]: 8 to 32 µg/mL (≈ 8.7 to 34.8 µM) | MIC [12]: 1 µg/mL (≈ 1.09 µM) | MIC [13]: 8 µg/mL (≈ 8.7 µM) | MIC [14]: 2 µg/mL (≈ 2.17 µM) | MIC (QRSA CCARM 3505): 1 µg/mL (≈ 1.09 µM) | MIC (E. coli CCARM 1356): 1 µg/mL (≈ 1.09 µM) | antimicrobial activity against VISA (VISA): confirmed | MIC ([15]; KTCT1661, Bacillus subtilis KTCT 1661, MHB, 20 hours, read-out: MIC): 0.125 µg/mL (≈ 0.136 µM) | MIC (MRSA CCARM 3506): 0.25 µg/mL (≈ 0.272 µM) | MIC [16]: 8 µg/mL (≈ 8.7 µM) | MIC (MRSA CCARM 3167): 0.125 µg/mL (≈ 0.136 µM) | MIC ([17]; KTCT3958, Staphylococcus epidermidis KTCT 3958, MHB, 20 hours, read-out: MIC): 0.125 µg/mL (≈ 0.136 µM) | MIC [18]: 8 µg/mL (≈ 8.7 µM)

Structure (SMILES): COC(C(N)=O)C(NC(=O)c1ccc(NC(=O)c2ccc([N+](=O)[O-])cc2)cc1)C(=O)Nc1ccc(C(=O)Nc2ccc(C(=O)Nc3ccc(C(=O)O)c(O)c3OC(C)C)c(O)c2OC(C)C)cc1 (stereo not shown) [Coralmycin B]
MIC [1]: 0.03 µg/mL (≈ 0.0321 µM) | higher antimicrobial activity compared to ciprofloxacin ([1]; in Enterococcus faecalis): at least 16 fold | MIC [5]: 0.125 µg/mL (≈ 0.134 µM) | MIC (E. coli KTCT 1682): 0.125 µg/mL (≈ 0.134 µM) | MIC [10]: 0.015 µg/mL (≈ 0.016 µM) | MIC [13]: 4 µg/mL (≈ 4.27 µM) | MIC [14]: 0.25 µg/mL (≈ 0.267 µM) | MIC (E. coli CCARM 1356): 0.125 µg/mL (≈ 0.134 µM) | higher antimicrobial activity compared to ciprofloxacin (E. coli CCARM 1356; in Escherichia coli): at least 426 fold | MIC [16]: 2 µg/mL (≈ 2.14 µM) | MIC (MRSA CCARM 3167): 0.015 µg/mL (≈ 0.016 µM) | higher antimicrobial activity compared to ciprofloxacin (MRSA CCARM 3167; in MRSA): at least 133 fold

Structure (SMILES): Oc1cc(Cl)ccc1Oc1ccc(Cl)cc1Cl [Triclosan, reference compound]
MIC [1]: > 64 µg/mL | MIC ([3]; Acinetobacter calcoaceticus, KTCT2357, 20 h): > 0.5 µg/mL | MIC ([4]; Enterococcus faecalis, KTCT3511, 20 h): > 64 µg/mL | MIC ([8]; Pseudomonas aeruginosa, KTCT2742, 20 h): > 64 µg/mL | MIC [13]: > 64 µg/mL | MIC [14]: 64 µg/mL (≈ 221 µM) | MIC ([15]; Bacillus subtilis, KTCT1661, 20 h): 2 µg/mL (≈ 6.91 µM) | MIC ([17]; Staphylococcus epidermidis, KTCT3958, 20 h): 0.25 µg/mL (≈ 0.863 µM)

MIC [1]: 0.5 µg/mL (≈ 1.51 µM) | MIC (E. coli KTCT 1682): 0.003 µg/mL (≈ 0.00905 µM) | MIC [13]: 0.06 µg/mL (≈ 0.181 µM) | MIC [14]: 0.5 µg/mL (≈ 1.51 µM) | MIC (E. coli CCARM 1356): 64 µg/mL (≈ 193 µM) | MIC [16]: 0.006 µg/mL (≈ 0.0181 µM) | MIC (MRSA CCARM 3167): 2 µg/mL (≈ 6.04 µM)
Structure (SMILES): O=C(O)c1cn(C2CC2)c2cc(N3CCNCC3)c(F)cc2c1=O [Ciprofloxacin, reference compound]
